The target in assay [1] is T1, h-GABA-A α5β3γ2 (Homo sapiens, UniProt P18507+P31644). The experiment in a line: [3H]flumazenil competition binding assay, membranes of HEK293 cells expressing GABAA receptors. As to conditions: displacement of [3H]-Flumazenil 0.5 nM, HEK293 cells expressing human receptors, mean of two determinations; Table 1. The essentials:
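Membranes from HEK293 cells transiently expressing human α5β3γ2 GABAA receptors, in Krebs-tris buffer pH 7.5, competed against [3H]flumazenil for 1 hour at 4° C to equilibrium. Bound radioactivity collected on GF/C filters and counted by liquid scintillation; Ki values are means of two determinations.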
A general note: In a radioligand displacement assay an active substance lowers the binding of a labelled ligand.

The target of assay [2] is T1, h-GABA-A α5β3γ2. The experiment in a line: Two-electrode voltage clamp electrophysiology in Xenopus laevis oocytes expressing GABAA receptors, modulation of GABA EC20 current. As to conditions: Table 1; for Efficacy (GABA) %: % modulation of GABA EC20 = 100*(Fold increase-1); for Fold increase h-GABA-A α5β3γ2 oocyte: test compound at approx. 30 fold its Ki, GABA at EC20. Also noted: host or cells: Xenopus laevis oocytes micro-injected with RNA transcripts of the subunits. It is filed as cell-based. An outline of the steps: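 Human α5β3γ2 GABAA receptors were expressed in Xenopus oocytes by RNA injection, with γ2 RNA 5–10-fold higher, and recorded 3–5 days later by two-electrode voltage clamp at −80 mV at room temperature. The test compound, at about 30× its Ki, was co-applied during a second GABA EC20 pulse. Efficacy is the extremum of the point-by-point ratio to the first response, expressed as 100*(Fold increase−1).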
Background: In two-electrode clamp one electrode senses voltage and the other passes current.

The compound `CCOC1CN(c2cnn(Cc3c(-c4ccc(C)nc4)noc3C)c(=O)c2)C1` [Example 99, 5-(3-ethoxyazetidin-1-yl)-2-[[5-methyl-3-(6-methyl-3-pyridyl)isoxazol-4-yl]methyl]pyridazin-3-one] displayed a Ki at h-GABA-A α5β3γ2 [1] of 0.0144 µM. For the same compound, at h-GABA-A α5β3γ2 [2], the “Efficacy (GABA) %” value was determined as 134% and the “Fold increase h-GABA-A α5β3γ2 oocyte” value is 2.34.
`Cc1ccc(-c2noc(C)c2Cn2ncc(N3CC(Oc4ccc(C)nn4)C3)cc2=O)cn1` [Example 186, 2-[[5-methyl-3-(6-methyl-3-pyridyl)isoxazol-4-yl]methyl]-5-[3-(6-methylpyridazin-3-yl)oxyazetidin-1-yl]pyridazin-3-one] returned a Ki on h-GABA-A α5β3γ2 [1] of 0.0374 µM. For the same compound, on h-GABA-A α5β3γ2 [2], the “Efficacy (GABA) %” value was determined as 160% and the “Fold increase h-GABA-A α5β3γ2 oocyte” value is on record as 2.6.
With `Cc1ccc(-c2noc(C)c2Cn2ncc(N3CC(OC4CCC4)C3)cc2=O)nn1` [Example 238, 5-[3-(cyclobutoxy)azetidin-1-yl]-2-[[5-methyl-3-(6-methylpyridazin-3-yl)isoxazol-4-yl]methyl]pyridazin-3-one], at h-GABA-A α5β3γ2 [1], the Ki turned out to be 0.0068 µM. At h-GABA-A α5β3γ2 [2], the “Efficacy (GABA) %” value is 128% and the “Fold increase h-GABA-A α5β3γ2 oocyte” value was determined as 2.28.
In the case of `CCOC1CN(c2cnn(Cc3c(-c4cnc(C)c(F)c4)noc3C)c(=O)c2)C1` [Example 213, 5-(3-ethoxyazetidin-1-yl)-2-((3-(5-fluoro-6-methylpyridin-3-yl)-5-methylisoxazol-4-yl)methyl)pyridazin-3(2H)-one], the Ki at h-GABA-A α5β3γ2 [1] amounted to 0.0328 µM. At h-GABA-A α5β3γ2 [2], the “Efficacy (GABA) %” value is 108% and the “Fold increase h-GABA-A α5β3γ2 oocyte” value amounted to 2.08.
On the same counts, the results for `Cc1ccc(-c2noc(C)c2Cn2ncc(N3CC(OCC(F)F)C3)cc2=O)nn1` [Example 306, 5-(3-(2,2-difluoroethoxy)azetidin-1-yl)-2-((5-methyl-3-(6-methylpyridazin-3-yl)isoxazol-4-yl)methyl)pyridazin-3(2H)-one] are 0.0012 µM, 101% and 2.01.
Compound `Cc1ccc(-c2noc(C)c2Cn2ncc(N3CCC4(CC3)CC(F)CCO4)cc2=O)nn1` (single isomer, unassigned) [Example 327] gave a Ki at h-GABA-A α5β3γ2 [1] of 0.0036 µM. Also, on h-GABA-A α5β3γ2 [2], the “Efficacy (GABA) %” value was 122% and the “Fold increase h-GABA-A α5β3γ2 oocyte” value came out at 2.22.
The compound `Cc1onc(-c2ccc(C(F)(F)F)nn2)c1Cn1ncc(N2CC3(CC[C@@H](F)CO3)C2)cc1=O` [Example 334, (R)-5-(7-fluoro-5-oxa-2-azaspiro[3.5]nonan-2-yl)-2-((5-methyl-3-(6-(trifluoromethyl)pyridazin-3-yl)isoxazol-4-yl)methyl)pyridazin-3(2H)-one] registered a Ki on h-GABA-A α5β3γ2 [1] of 0.0059 µM. Also, on h-GABA-A α5β3γ2 [2], the “Efficacy (GABA) %” value is given as 105% and the “Fold increase h-GABA-A α5β3γ2 oocyte” value turned out to be 2.05.
For `Cc1onc(-c2ccc(Cl)nc2)c1Cn1ncc(N2CC3(CCCO3)C2)cc1=O` [Example 209, 2-((3-(6-chloropyridin-3-yl)-5-methylisoxazol-4-yl)methyl)-5-(5-oxa-2-azaspiro[3.4]octan-2-yl)pyridazin-3(2H)-one], in that order: 0.0527 µM, 94% and 1.94.
On the same counts, the results for `Cc1ccc(-c2noc(C)c2Cn2ncc(-c3cc(F)cnc3Cl)cc2=O)cn1` [Example 189, 5-(2-chloro-5-fluoro-3-pyridyl)-2-((5-methyl-3-(6-methyl-3-pyridyl)isoxazol-4-yl)methyl)pyridazin-3-one] are 0.0282 µM, 180% and 2.8.
On the same counts, the results for `Cc1ccc(-c2noc(C)c2Cn2ncc(N3CC4(C[C@@H](OC(F)F)CO4)C3)cc2=O)cn1` [Example 203, 5-[(7R)-7-(difluoromethoxy)-5-oxa-2-azaspiro[3.4]octan-2-yl]-2-[[5-methyl-3-(6-methyl-3-pyridyl)isoxazol-4-yl]methyl]pyridazin-3-one] are 0.0178 µM, 121% and 2.21.
`Cc1ccc(-c2noc(C)c2Cn2ncc(N3CCC4(CC3)CC(F)CCO4)cc2=O)nn1` (single isomer, unassigned) [Example 326] returned a Ki on h-GABA-A α5β3γ2 [1] of 0.0019 µM. In addition, at h-GABA-A α5β3γ2 [2], the “Efficacy (GABA) %” value amounted to 164% and the “Fold increase h-GABA-A α5β3γ2 oocyte” value is given as 2.64.
For `Cc1ccc(-c2noc(C)c2Cn2ncc(-c3cccc(C#N)n3)cc2=O)cn1` [Example 211, 6-(1-((5-methyl-3-(6-methyl-3-pyridyl)isoxazol-4-yl)methyl)-6-oxo-pyridazin-4-yl)pyridine-2-carbonitrile], in that order: 0.0409 µM, 324% and 4.24.
`Cc1onc(-c2ccc(Cl)nc2)c1Cn1ncc(N2CCC3(CCO3)CC2)cc1=O` [Example 270, 2-((3-(6-chloropyridin-3-yl)-5-methylisoxazol-4-yl)methyl)-5-(1-oxa-7-azaspiro[3.5]nonan-7-yl)pyridazin-3(2H)-one] displayed a Ki at h-GABA-A α5β3γ2 [1] of 0.0278 µM. For the same compound, at h-GABA-A α5β3γ2 [2], the “Efficacy (GABA) %” value was determined as 144% and the “Fold increase h-GABA-A α5β3γ2 oocyte” value is 2.44.
Regarding `Cc1onc(-c2ccc(Cl)nc2)c1Cn1ncc(N2C[C@@H](C)O[C@@H](C)C2)cc1=O` [Example 219, 2-((3-(6-chloropyridin-3-yl)-5-methylisoxazol-4-yl)methyl)-5-((2RS,6SR)-2,6-dimethylmorpholino)pyridazin-3(2H)-one], at h-GABA-A α5β3γ2 [1], the Ki worked out at 0.0026 µM. Also, at h-GABA-A α5β3γ2 [2], the “Efficacy (GABA) %” value worked out at 247% and the “Fold increase h-GABA-A α5β3γ2 oocyte” value was determined as 3.47.
The compound `COc1ccc(-c2cnn(Cc3c(-c4ccc(C)nc4)noc3C)c(=O)c2)cn1` [Example 81, 5-(6-methoxypyridin-3-yl)-2-((5-methyl-3-(6-methylpyridin-3-yl)isoxazol-4-yl)methyl)pyridazin-3(2H)-one] came in with an inhibition constant Ki on h-GABA-A α5β3γ2 [1] of 0.0242 µM. On h-GABA-A α5β3γ2 [2], the “Efficacy (GABA) %” value is 123% and the “Fold increase h-GABA-A α5β3γ2 oocyte” value was 2.23.
For `CNc1cc(-c2cnn(Cc3c(-c4ccc(C)nc4)noc3C)c(=O)c2)ccn1` [Example 202, 2-((5-methyl-3-(6-methylpyridin-3-yl)isoxazol-4-yl)methyl)-5-(2-(methylamino)pyridin-4-yl)pyridazin-3(2H)-one], the Ki at h-GABA-A α5β3γ2 [1] turned out to be 0.0042 µM. On h-GABA-A α5β3γ2 [2], the “Efficacy (GABA) %” value stood at 96% and the “Fold increase h-GABA-A α5β3γ2 oocyte” value is reported as 1.96.
In turn, `Cc1onc(-c2ccc(Cl)nn2)c1Cn1ncc(N2CC3(C2)CC(F)(F)CO3)cc1=O` [Example 269, 2-((3-(6-chloropyridazin-3-yl)-5-methylisoxazol-4-yl)methyl)-5-(7,7-difluoro-5-oxa-2-azaspiro[3.4]octan-2-yl)pyridazin-3(2H)-one] registered a Ki on h-GABA-A α5β3γ2 [1] of 0.0014 µM. In addition, at h-GABA-A α5β3γ2 [2], the “Efficacy (GABA) %” value came to 70% and the “Fold increase h-GABA-A α5β3γ2 oocyte” value is 1.7.
Turning to `Cc1ccc(-c2noc(C)c2Cn2ncc(-c3ccnc(OC(F)F)c3)cc2=O)cn1` [Example 175, 5-(2-(difluoromethoxy)pyridin-4-yl)-2-((5-methyl-3-(6-methylpyridin-3-yl)isoxazol-4-yl)methyl)pyridazin-3(2H)-one], the Ki on h-GABA-A α5β3γ2 [1] was found to be 0.0066 µM. For the same compound, on h-GABA-A α5β3γ2 [2], the “Efficacy (GABA) %” value stood at 86% and the “Fold increase h-GABA-A α5β3γ2 oocyte” value was 1.86.

The Ki is the dissociation constant of the complex between target and ligand, obtained from inhibition or displacement.
